Structures are written as SMILES. Where two headings read alike, the source gives them in different places.

IC50 data for 22 molecules are collected here from patent US10556905B2, “Processes for preparing a diazabicyclooctane compound” (priority 2012, dated 2020).

For assay [1], the target named is T1, OXA-2 (Escherichia coli, UniProt P0A1V9).
T1 construct: AmpC, TEM-1, KPC-2 or OXA-2 domain excluding signal peptide was amplified with PCR; made in house; host or cells: Escherichia coli BL21 (DE3), pET-28b(+)
Briefly: biochemical. Also noted: species or system P. aeruginosa.

Assay [2] concerns the target T2, AmpC (Pseudomonas aeruginosa, UniProt P24735).
T2 construct: AmpC, TEM-1, KPC-2 or OXA-2 domain excluding signal peptide was amplified with PCR; made in house; host or cells: Escherichia coli BL21 (DE3), pET-28b(+)
Briefly: biochemical.

Assay [3] addresses T3, TEM-1 (Escherichia coli, UniProt P62593).
T3 construct: AmpC, TEM-1, KPC-2 or OXA-2 domain excluding signal peptide was amplified with PCR; made in house; host or cells: Escherichia coli BL21 (DE3), pET-28b(+)
In words: β-Lactamase inhibitory activity (nitrocefin hydrolysis), TEM-1. The class given is biochemical. To be noted: TEM-1 0.1 nM, 100 μM nitrocefin, pre-incubation 30° C. 10 minutes. A digest of the protocol:
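Recombinant TEM-1 (signal peptide removed), expressed in E. coli BL21(DE3), hydrolysing 100 μM nitrocefin (final) in 50 mM phosphate pH 7.0 with 2.5% DMSO and 10 μg/mL BSA. Incubated 20 min at 30° C; A492 read. Potency given as bands A (<0.1 μM) to E (≥10 μM).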

Assay [4] addresses T4, KPC-2 (Klebsiella pneumoniae, UniProt Q9F663).
T4 construct: AmpC, TEM-1, KPC-2 or OXA-2 domain excluding signal peptide was amplified with PCR; made in house; host or cells: Escherichia coli BL21 (DE3), pET-28b(+)
In words: β-Lactamase inhibitory activity (nitrocefin hydrolysis), KPC-2. The class given is biochemical. As to conditions: KPC-2 0.5 nM, 100 μM nitrocefin, pre-incubation 30° C. 10 minutes.

Where [5] appears, read: OXA-2 2 nM, 100 μM nitrocefin, pre-incubation 30° C. 10 minutes, read-out: β-Lactamase inhibitory activity OXA-2 (IC50).

T2 sequence (P24735 27-397): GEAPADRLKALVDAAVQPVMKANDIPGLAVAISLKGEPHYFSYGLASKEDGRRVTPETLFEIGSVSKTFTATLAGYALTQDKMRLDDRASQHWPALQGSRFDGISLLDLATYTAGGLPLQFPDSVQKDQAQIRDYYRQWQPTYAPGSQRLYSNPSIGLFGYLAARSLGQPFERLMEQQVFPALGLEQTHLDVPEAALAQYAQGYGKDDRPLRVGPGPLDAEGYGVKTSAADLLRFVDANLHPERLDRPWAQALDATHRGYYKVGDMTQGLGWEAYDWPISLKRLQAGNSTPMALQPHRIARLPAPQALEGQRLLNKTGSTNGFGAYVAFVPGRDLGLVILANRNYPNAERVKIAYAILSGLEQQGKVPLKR
T4 sequence (Q9F663 25-293, looked up): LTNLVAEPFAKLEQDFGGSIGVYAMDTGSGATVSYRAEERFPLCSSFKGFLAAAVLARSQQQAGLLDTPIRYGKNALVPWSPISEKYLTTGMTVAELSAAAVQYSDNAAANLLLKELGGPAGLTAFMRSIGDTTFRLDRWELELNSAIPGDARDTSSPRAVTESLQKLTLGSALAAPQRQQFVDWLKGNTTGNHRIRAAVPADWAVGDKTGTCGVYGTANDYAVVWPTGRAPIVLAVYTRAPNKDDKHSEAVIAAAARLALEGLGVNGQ
T1 sequence (P0A1V9 22-275): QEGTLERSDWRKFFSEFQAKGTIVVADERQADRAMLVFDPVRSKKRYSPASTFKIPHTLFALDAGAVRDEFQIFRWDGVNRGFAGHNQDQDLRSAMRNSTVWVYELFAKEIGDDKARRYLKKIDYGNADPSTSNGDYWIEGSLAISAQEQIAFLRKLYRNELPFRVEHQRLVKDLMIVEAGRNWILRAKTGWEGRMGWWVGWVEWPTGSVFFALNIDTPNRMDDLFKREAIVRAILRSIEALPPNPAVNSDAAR
T3 sequence (P62593 24-286 limits assumed): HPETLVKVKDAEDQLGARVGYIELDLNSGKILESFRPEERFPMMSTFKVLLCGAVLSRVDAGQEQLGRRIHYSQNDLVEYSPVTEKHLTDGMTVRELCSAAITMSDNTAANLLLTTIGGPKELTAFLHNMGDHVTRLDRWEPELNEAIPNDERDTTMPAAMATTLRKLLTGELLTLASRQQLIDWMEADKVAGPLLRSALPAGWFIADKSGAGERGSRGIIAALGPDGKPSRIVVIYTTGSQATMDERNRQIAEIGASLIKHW

A word on the IC50: it is the concentration at which inhibition is half-maximal. As for `O=C(NNC(=O)[C@@H]1CC[C@@H]2CN1C(=O)N2OS(=O)(=O)O)c1ccco1` [Example 43, Sodium (2S,5R)—N′-(furan-2-ylcarbonyl)-7-oxo-6-(sulfooxy)-1,6-diazabicyclo[3.2.1]octane-2-carbohydrazide], the IC50 in assay [1] is 1000 to 3000 nM; in assay [2], 100 to 1000 nM; in assay [3] it was under 100 nM; in assay [4], 100 to 1000 nM.
For the molecule `Nc1ccc(CC(=O)NNC(=O)[C@@H]2CC[C@@H]3CN2C(=O)N3OS(=O)(=O)O)cc1` [Example 28, (2S,5R)—N′-[(4-Aminophenyl)acetyl]-7-oxo-6-(sulfooxy)-1,6-diazabicyclo[3.2.1]octane-2-carbohydrazide], the IC50 was 3000 to 10000 nM in assay [1] (setting [5]), under 100 nM in assay [2], under 100 nM in assay [3] and 100 to 1000 nM in assay [4].
With `CS(=O)(=O)CCONC(=O)[C@@H]1CC[C@@H]2CN1C(=O)N2OS(=O)(=O)O` [Example 97, Sodium (2S,5R)—N-[2-(methylsulfonyl)ethoxy]-7-oxo-6-(sulfooxy)-1,6-diazabicyclo[3.2.1]octane-2-carboxamide], the IC50 is 100 to 1000 nM in assay [1], under 100 nM in assay [2], under 100 nM in assay [3] and under 100 nM in assay [4].
Consider `CC(=O)N(C)NC(=O)[C@@H]1CC[C@@H]2CN1C(=O)N2OS(=O)(=O)O` (racemic) [Example 25, Sodium (2SR,5RS)—N′-acetyl-N′-methyl-7-oxo-6-(sulfooxy)-1,6-diazabicyclo[3.2.1]octane-2-carbohydrazide], for which the concentration for half-maximal inhibition (IC50) in assay [1] was over 10000 nM; in assay [2] it was 100 to 1000 nM; in assay [3] it was under 100 nM; in assay [4], under 100 nM.
Regarding `O=C(NOCCn1cccc1)[C@@H]1CC[C@@H]2CN1C(=O)N2OS(=O)(=O)O` [Example 87, Sodium (2S,5R)-7-oxo-N-[2-(1H-pyrrol-1-yl)ethoxy]-6-(sulfooxy)-1,6-diazabicyclo[3.2.1]octane-2-carboxamide], the IC50 in assay [1] is 100 to 1000 nM; in assay [2] it was under 100 nM; in assay [3], under 100 nM; in assay [4], under 100 nM.
As for `O=C(NOCCN1CCNC1=O)[C@@H]1CC[C@@H]2CN1C(=O)N2OS(=O)(=O)O` [Example 94, Sodium (2S,5R)-7-oxo-N-[2-(2-oxoimidazolidin-1-yl)ethoxy]-6-(sulfooxy)-1,6-diazabicyclo[3.2.1]octane-2-carboxamide], the IC50 in assay [1] was 100 to 1000 nM; in assay [2], under 100 nM; in assay [3] it was under 100 nM; in assay [4] it was 100 to 1000 nM.
For `O=C(NNC(=O)[C@@H]1CC[C@@H]2CN1C(=O)N2OS(=O)(=O)O)c1cocn1` [Example 44, Sodium (2S,5R)—N′-(1,3-oxazol-4-ylcarbonyl)-7-oxo-6-(sulfooxy)-1,6-diazabicyclo[3.2.1]octane-2-carbohydrazide], the IC50 is 1000 to 3000 nM in assay [1], under 100 nM in assay [2], under 100 nM in assay [3] and under 100 nM in assay [4].
As to `O=C(NNC(=O)[C@@H]1CC[C@@H]2CN1C(=O)N2OS(=O)(=O)O)[C@@H]1CCCCN1` [Example 36, (2S,5R)-7-Oxo-N′-[(2S)-piperidine-2-ylcarbonyl]-6-(sulfooxy)-1,6-diazabicyclo[3.2.1]octane-2-carbohydrazide], the IC50 is 3000 to 10000 nM in assay [1] (setting [5]), 100 to 1000 nM in assay [2], under 100 nM in assay [3] and 1000 to 3000 nM in assay [4].
Turning to `NCCC(=O)NNC(=O)[C@@H]1CC[C@@H]2CN1C(=O)N2OS(=O)(=O)O` [Example 27, (2S,5R)—N′-(3-Aminopropanoyl)-7-oxo-6-(sulfooxy)-1,6-diazabicyclo[3.2.1]octane-2-carbohydrazide], the IC50 in assay [1] (setting [5]) was 1000 to 3000 nM; in assay [2], 100 to 1000 nM; in assay [3] it was under 100 nM; in assay [4] it was 1000 to 3000 nM.
For `CNCCONC(=O)[C@@H]1CC[C@@H]2CN1C(=O)N2OS(=O)(=O)O` [Example 61, (2S,5R)—N-[2-(Methylamino)ethoxy]-7-oxo-6-(sulfooxy)-1,6-diazabicyclo[3.2.1]octane-2-carboxamide], the IC50 in assay [1] (setting [5]) is 1000 to 3000 nM; in assay [2], 100 to 1000 nM; in assay [3], under 100 nM; in assay [4], 1000 to 3000 nM.
Consider `CCCNCCONC(=O)[C@@H]1CC[C@@H]2CN1C(=O)N2OS(=O)(=O)O` [Example 63, (2S,5R)-7-Oxo-N-[2-(propylamino)ethoxy]-6-(sulfooxy)-1,6-diazabicyclo[3.2.1]octane-2-carboxamide], for which the concentration for half-maximal inhibition (IC50) is 1000 to 3000 nM in assay [1] (setting [5]), 100 to 1000 nM in assay [2], under 100 nM in assay [3] and 100 to 1000 nM in assay [4].
Take `CCN(CC)C(=O)NNC(=O)[C@@H]1CC[C@@H]2CN1C(=O)N2OS(=O)(=O)O` [Example 48, Sodium N,N-diethyl2-{[(2S,5R)-7-oxo-6-(sulfooxy)-1,6-diazabicyclo[3.2.1]oct-2-yl]carbonyl}hydrazinecarboxamide]: the IC50 in assay [1] was 3000 to 10000 nM; in assay [2] it was under 100 nM; in assay [3] it was 100 to 1000 nM; in assay [4], 100 to 1000 nM.
With `COCCONC(=O)[C@@H]1CC[C@@H]2CN1C(=O)N2OS(=O)(=O)O` [Example 96, Sodium (2S,5R)—N-(2-methoxyethoxy)-7-oxo-6-(sulfooxy)-1,6-diazabicyclo[3.2.1]octane-2-carboxamide], the IC50 in assay [1] is 1000 to 3000 nM; in assay [2] it was under 100 nM; in assay [3], under 100 nM; in assay [4] it was 100 to 1000 nM.
On to `O=C(NO[C@H]1CCNC1)[C@@H]1CC[C@@H]2CN1C(=O)N2OS(=O)(=O)O` [Example 81, (2S,5R)-7-Oxo-N-[(3S)-pyrrolidin-3-yloxy]-6-(sulfooxy)-1,6-diazabicyclo[3.2.1]octane-2-carboxamide], for which the IC50 in assay [1] (setting [5]) was 1000 to 3000 nM; in assay [2] it was under 100 nM; in assay [3] it was under 100 nM; in assay [4], 100 to 1000 nM.
`O=C(NOCC1CCNCC1)[C@@H]1CC[C@@H]2CN1C(=O)N2OS(=O)(=O)O` [Example 85, (2S,5R)-7-Oxo-N-(piperidine-4-ylmethoxy)-6-(sulfooxy)-1,6-diazabicyclo[3.2.1]octane-2-carboxamide]: the IC50 in assay [1] (setting [5]) is 100 to 1000 nM; in assay [2], under 100 nM; in assay [3] it was under 100 nM; in assay [4] it was 100 to 1000 nM.
For `O=C(NOCC(=O)N1CCCNCC1)[C@@H]1CC[C@@H]2CN1C(=O)N2OS(=O)(=O)O` [Example 92, (2S,5R)—N-[2-(1,4-Diazepan-1-yl)-2-oxoethoxy]-7-oxo-6-(sulfooxy)-1,6-diazabicyclo[3.2.1]octane-2-carboxamide], the IC50 in assay [1] (setting [5]) is 100 to 1000 nM; in assay [2], under 100 nM; in assay [3] it was under 100 nM; in assay [4], 100 to 1000 nM.
With `O=C(NOCCN1CCCC1=O)[C@@H]1CC[C@@H]2CN1C(=O)N2OS(=O)(=O)O` [Example 93, Sodium (2S,5R)-7-oxo-N-[2-(2-oxopyrrolidin-1-yl)ethoxy]-6-(sulfooxy)-1,6-diazabicyclo[3.2.1]octane-2-carboxamide], the IC50 is 100 to 1000 nM in assay [1], under 100 nM in assay [2], under 100 nM in assay [3] and 100 to 1000 nM in assay [4].
For `C[C@@H](N)CONC(=O)[C@@H]1CC[C@@H]2CN1C(=O)N2OS(=O)(=O)O` [Example 67, (2S,5R)—N-{[(2R)-2-Aminopropyl]oxy}-7-oxo-6-(sulfooxy)-1,6-diazabicyclo[3.2.1]octane-2-carboxamide], the IC50 in assay [1] (setting [5]) was 1000 to 3000 nM; in assay [2], 100 to 1000 nM; in assay [3] it was under 100 nM; in assay [4], 1000 to 3000 nM.
Consider `O=C(NNC(=O)[C@@H]1CC[C@@H]2CN1C(=O)N2OS(=O)(=O)O)[C@@H]1C[C@H](CC2CC2)CCN1` [Example 40, (2S,5R)—N′-{[(2S,4R)-4-Cyclopropylmethylpiperidine-2-yl]carbonyl}-7-oxo-6-(sulfooxy)-1,6-diazabicyclo[3.2.1]octane-2-carbohydrazide], for which the half-inhibitory concentration (IC50) in assay [1] (setting [5]) was 1000 to 3000 nM; in assay [2] it was 100 to 1000 nM; in assay [3], under 100 nM; in assay [4], 3000 to 10000 nM.
Turning to `O=C(NOC[C@@H]1CCCNC1)[C@@H]1CC[C@@H]2CN1C(=O)N2OS(=O)(=O)O` [Example 83, (2S,5R)-7-Oxo-N-[(3R)-piperidine-3-ylmethoxy]-6-(sulfooxy)-1,6-diazabicyclo[3.2.1]octane-2-carboxamide], the IC50 in assay [1] (setting [5]) was 100 to 1000 nM; in assay [2] it was under 100 nM; in assay [3] it was under 100 nM; in assay [4], 100 to 1000 nM.
For `Nc1ccc(C(=O)NNC(=O)[C@@H]2CC[C@@H]3CN2C(=O)N3OS(=O)(=O)O)cc1` [Example 31, (2S,5R)—N′-(4-Aminobenzoyl)-7-oxo-6-(sulfooxy)-1,6-diazabicyclo[3.2.1]octane-2-carbohydrazide], the concentration for half-maximal inhibition (IC50) in assay [1] (setting [5]) is 3000 to 10000 nM; in assay [2], 100 to 1000 nM; in assay [3] it was under 100 nM; in assay [4], 100 to 1000 nM.
As for `CONC(=O)[C@@H]1CC[C@@H]2CN1C(=O)N2OS(=O)(=O)O` [Example 56, Sodium (2S,5R)—N-methoxy-7-oxo-6-(sulfooxy)-1,6-diazabicyclo[3.2.1]octane-2-carboxamide], the IC50 in assay [1] was 1000 to 3000 nM; in assay [2], 100 to 1000 nM; in assay [3] it was under 100 nM; in assay [4], 100 to 1000 nM.
